Laboratory results: patent US20090247559A1 (Exelixis, Inc., priority 2007, published 2009)

Biological target: PIM (PIM-1, PIM-2, and/or PIM-3)
Assay: PIM-1, PIM-2 and PIM-3 inhibition, biochemical chemiluminescence assays (Kinase Glo, IC50 determination)
Conditions: Table 1 activity class; PIM refers to PIM-1, PIM-2, and/or PIM-3; read-out: PIM IC50 (Activity B)
Experimental: (§1) The IC50 evaluation of compounds against the PIM-1 oncogene was performed in a Chemiluminesence assay utilizing a Greiner 384-well white medium binding white plate format. […] Following an incubation period of 120 minutes at ambient temperature (24-27° C.), 10 μL of Kinase Glo (Promega) was added. The luminescence was measured following a Luminescence Protocol on a Victor plate reader.
as §1, with “PIM-2” for “PIM-1”, “format. […] The assay procedure involves compound dilution followed by addition of 3 nM PIM-2 to the designated well plates and subsequent pre-incubation of the compounds with the enzyme for 30 minutes at ambient temperature (24-27° C.).” for “format.”
as §1, with “PIM-3 Oncogene” for “PIM-1 oncogene”

SMILES | IC50 [µM]
CN(C)CCCNC(=O)[C@@H]1CCCN1Cc1nc2c(oc3ccc(Br)cc32)c(=O)[nH]1 [Compound 20, 1-[(8-bromo-4-oxo-3,4-dihydro[1]benzofuro[3,2-d]pyrimidin-2-yl)methyl]-N-[3-(dimethylamino)propyl]prolinamide] | < 10
CCN(CC)CC(=O)N1CCN(Cc2nc3c(oc4ccc(Br)cc43)c(=O)[nH]2)CC1 [Compound 26, 8-bromo-2-{[4-(N,N-diethylglycyl)piperazin-1-yl]methyl}[1]benzofuro[3,2-d]pyrimidin-4(3H)-one] | < 10
COC(=O)c1ccc(-c2nc3c(oc4ccccc43)c(=O)[nH]2)cc1 [Compound 53, methyl 4-(4-oxo-3,4-dihydro[1]benzofuro[3,2-d]pyrimidin-2-yl)benzoate] | < 10
CN1CCN(c2ccccc2CNCc2nc3c(oc4ccc(Br)cc43)c(=O)[nH]2)CC1 [Compound 74, 8-bromo-2-[({[2-(4-methylpiperazin-1-yl)phenyl]methyl}amino)methyl][1]benzofuro[3,2-d]pyrimidin-4(3H)-one] | < 10
CN(C)c1cccc(NCc2nc3c(oc4ccc(Br)cc43)c(=O)[nH]2)c1 [Compound 76, 8-bromo-2-({[3-(dimethylamino)phenyl]amino}methyl)[1]benzofuro[3,2-d]pyrimidin-4(3H)-one] | < 10
CN(C)CCN1CCN(Cc2nc3c(oc4ccc(Br)cc43)c(=O)[nH]2)CC1 [Compound 81, 8-bromo-2-({4-[2-(dimethylamino)ethyl]piperazin-1-yl}methyl)[1]benzofuro[3,2-d]pyrimidin-4(3H)-one] | < 10
O=c1[nH]c(CN2CCN(CCN3CCOCC3)CC2)nc2c1oc1ccc(Br)cc12 [Compound 82, 8-bromo-2-{[4-(2-morpholin-4-ylethyl)piperazin-1-yl]methyl}[1]benzofuro[3,2-d]pyrimidin-4(3H)-one] | < 10
CN1CCC(N2CCN(Cc3nc4c(oc5ccc(Br)cc54)c(=O)[nH]3)CC2)CC1 [Compound 84, 8-bromo-2-{[4-(1-methylpiperidin-4-yl)piperazin-1-yl]methyl}[1]benzofuro[3,2-d]pyrimidin-4(3H)-one] | < 10
CN1CCN(C(=O)c2nc3c(oc4ccc(Br)cc43)c(=O)[nH]2)CC1 [Compound 106, 8-Bromo-2-[(4-methylpiperazin-1-yl)carbonyl][1]benzofuro[3,2-d]pyrimidin-4(3H)-one] | < 10
NC1C[C@H]2CC[C@@H](C1)N2Cc1nc2c(oc3ccc(Br)cc32)c(=O)[nH]1 (stereo partly drawn) [Compound 131, 2-{[(1R,5S)-3-Amino-8-azabicyclo[3.2.1]oct-8-yl]methyl}-8-bromo[1]benzofuro[3,2-d]pyrimidin-4(3H)-one] | < 10
CN1CCN(C(c2nc3c(oc4ccc(Br)cc43)c(=O)[nH]2)c2ccccc2Cl)CC1 (centres unmarked) [Compound 156, 8-Bromo-2-[(2-chlorophenyl)(4-methylpiperazin-1-yl)methyl][1]benzofuro[3,2-d]pyrimidin-4(3H)-one] | < 10
CN1CCN(C(c2ccccc2)c2nc3c(oc4ccc(Br)cc43)c(=O)[nH]2)CC1 (centres unmarked) [Compound 188, 8-bromo-2-[(4-methylpiperazin-1-yl)(phenyl)methyl][1]benzofuro[3,2-d]pyrimidin-4(3H)-one] | < 10
CN(C)CCNCc1nc2c(oc3ccc(Br)cc32)c(=O)[nH]1 [Compound 200, 8-bromo-2-({[2-(dimethylamino)ethyl]amino}methyl)[1]benzofuro[3,2-d]pyrimidin-4(3H)-one] | < 10
O=c1[nH]c(CN2CCC(N3CCCCC3)CC2)nc2c1oc1ccc(Br)cc12 [Compound 202, 2-(1,4′-bipiperidin-1′-ylmethyl)-8-bromo[1]benzofuro[3,2-d]pyrimidin-4(3H)-one] | < 10
CN1CCN(C(Cc2ccccc2)c2nc3c(oc4ccc(Br)cc43)c(=O)[nH]2)CC1 (centres unmarked) [Compound 215, 8-bromo-2-[1-(4-methylpiperazin-1-yl)-2-phenylethyl][1]benzofuro[3,2-d]pyrimidin-4(3H)-one] | < 10
CC(C)COc1cnccc1-c1nc2c(oc3ccc(Br)cc32)c(=O)[nH]1 [Compound 219, 8-bromo-2-{3-[(2-methylpropyl)oxy]pyridin-4-yl}[1]benzofuro[3,2-d]pyrimidin-4(3H)-one] | < 10
CN1CCN(c2ccc(CNc3nc4c(oc5ccc(Br)cc54)c(=O)[nH]3)cc2)CC1 [Compound 225, 8-bromo-2-({[4-(4-methylpiperazin-1-yl)phenyl]methyl}amino)[1]benzofuro[3,2-d]pyrimidin-4(3H)-one] | < 10
O=c1[nH]c(CN2CCN(c3cccc(Cl)c3)CC2)nc2c1oc1ccc(Br)cc12 [Compound 278, 8-bromo-2-{[4-(3-chlorophenyl)piperazin-1-yl]methyl}[1]benzofuro[3,2-d]pyrimidin-4(3H)-one] | < 10
C[C@@H]1CN(Cc2nc3c(oc4ccc(Br)cc43)c(=O)[nH]2)C[C@H](C)N1 [Compound 296, 8-bromo-2-{[(3R,5S)-3,5-dimethylpiperazin-1-yl]methyl}[1]benzofuro[3,2-d]pyrimidin-4(3H)-one] | < 10
C[C@@H]1CN(Cc2nc3c(oc4ccc(Br)cc43)c(=O)[nH]2)C[C@H](C)N1C [Compound 316, 8-bromo-2-{[(3R,5S)-3,4,5-trimethylpiperazin-1-yl]methyl}[1]benzofuro[3,2-d]pyrimidin-4(3H)-one] | < 10
CN1CCN(Cc2nc3c(oc4ccc(F)cc43)c(=O)[nH]2)CC1 [Compound 367, 8-Fluoro-2-[(4-methylpiperazin-1-yl)methyl][1]benzofuro[3,2-d]pyrimidin-4(3H)-one] | < 10
Nc1ccc(-c2nc3c(oc4ccccc43)c(=O)[nH]2)c(Cl)c1 [Compound 399, 2-(4-amino-2-chlorophenyl)[1]benzofuro[3,2-d]pyrimidin-4(3H)-one] | < 10

Now from value to compound:

IC50 [µM] | SMILES
< 10 | O=c1[nH]c(CNC2CCNCC2)nc2c1oc1ccc(Br)cc12 [Compound 8, 8-bromo-2-[(piperidin-4-ylamino)methyl][1]benzofuro[3,2-d]pyrimidin-4(3H)-one]
< 10 | O=c1[nH]c(CNc2ccc(F)cc2)nc2c1oc1ccc(Br)cc12 [Compound 22, 8-bromo-2-{[(4-fluorophenyl)amino]methyl}[1]benzofuro[3,2-d]pyrimidin-4(3H)-one]
< 10 | Cc1cc(NCC2CCOC2)ccc1-c1nc2c(oc3ccc(Br)cc32)c(=O)[nH]1 (centres unmarked) [Compound 61, 8-bromo-2-{2-methyl-4-[(tetrahydrofuran-3-ylmethyl)amino]phenyl}[1]benzofuro[3,2-d]pyrimidin-4(3H)-one]
< 10 | O=c1[nH]c(-c2ccc(Cl)cc2)nc2c1oc1ccc(Br)cc12 [Compound 94, 8-Bromo-2-(4-chlorophenyl)[1]benzofuro[3,2-d]pyrimidin-4(3H)-one]
< 10 | O=c1[nH]c(-c2ccc(Br)cc2)nc2c1oc1ccc(Br)cc12 [Compound 95, 8-Bromo-2-(4-bromophenyl)[1]benzofuro[3,2-d]pyrimidin-4(3H)-one]
< 10 | CNC(=O)c1ccc2oc3c(=O)[nH]c(-c4ccccc4Cl)nc3c2c1 [Compound 97, 2-(2-chlorophenyl)-N-methyl-4-oxo-3,4-dihydrobenzofuro[3,2-d]pyrimidine-8-carboxamide]
< 10 | O=C(COc1cccc(-c2nc3c(oc4ccc(Br)cc43)c(=O)[nH]2)c1)NCC1CC1 [Compound 98, 2-{[3-(8-bromo-4-oxo-3,4-dihydro[1]benzofuro[3,2-d]pyrimidin-2-yl)phenyl]oxy}-N-(cyclopropylmethyl)acetamide]
< 10 | O=c1[nH]c(-c2cn3c(n2)CNCC3)nc2c1oc1ccc(Br)cc12 [Compound 301, 8-Bromo-2-(5,6,7,8-tetrahydroimidazo[1,2-a]pyrazin-2-yl)[1]benzofuro[3,2-d]pyrimidin-4(3H)-one]
< 10 | O=C(Nc1ccc(Cl)c(-c2nc3c(oc4ccc(Br)cc43)c(=O)[nH]2)c1)c1cccnc1 [Compound 327, N-[3-(8-bromo-4-oxo-3,4-dihydro[1]benzofuro[3,2-d]pyrimidin-2-yl)-4-chlorophenyl]pyridine-3-carboxamide]
< 10 | O=C(Nc1ccc(Cl)c(-c2nc3c(oc4ccc(Br)cc43)c(=O)[nH]2)c1)c1ccc(Br)cn1 [Compound 338, 5-bromo-N-[3-(8-bromo-4-oxo-3,4-dihydro[1]benzofuro[3,2-d]pyrimidin-2-yl)-4-chlorophenyl]pyridine-2-carboxamide]
< 10 | COc1ccc(C(=O)Nc2ccc(Cl)c(-c3nc4c(oc5ccc(Br)cc54)c(=O)[nH]3)c2)cn1 [Compound 357, N-[3-(8-bromo-4-oxo-3,4-dihydro[1]benzofuro[3,2-d]pyrimidin-2-yl)-4-chlorophenyl]-6-(methyloxy)pyridine-3-carboxamide]
< 10 | O=c1[nH]c(C(c2ccccc2)N2CCNCC2)nc2c1oc1ccc(Br)cc12 (centres unmarked) [Compound 384, 8-bromo-2-[phenyl(piperazin-1-yl)methyl][1]benzofuro[3,2-d]pyrimidin-4(3H)-one]
< 10 | O=C(Nc1ccc(Cl)c(-c2nc3c(oc4ccc(Br)cc43)c(=O)[nH]2)c1)C1CCNCC1 [Compound 392, ′N-[3-(8-bromo-4-oxo-3,4-dihydro[1]benzofuro[3,2-d]pyrimidin-2-yl)-4-chlorophenyl]piperidine-4-carboxamide]
